Converted amounts (≈) assume the structure as drawn.
Tests used:
[1] = tested on: clinical isolates carrying AAC(3)-IV; test: MIC broth microdilution, AAC(3)-IV; type: cell-based; details: clinical isolates, IMM Univ. Zurich; AAC(3)-IV; read-out: MIC AAC(3)-IV
Outline: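 MICs obtained by broth microdilution following CLSI M07-A10, tested against clinical isolates from the Institute of Medical Microbiology, Univ. Zurich; values in μg/ml.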

[2] = tested on: clinical isolates carrying APH(3′)-I; test: MIC broth microdilution, APH(3′)-I; type: cell-based; details: IMM Univ. Zurich
Excerpt: (§1) Minimal inhibitory concentrations (MIC) have been determined by broth microdilution assays (CLSI. Methods for Dilution Antimicrobial Susceptibility Tests for Bacteria That Grow Aerobically; Approved Standard—Tenth Edition. CLSI document M07-A10. Wayne, Pa.: Clinical and Laboratory Standards Institute; 2015.).
(§2) Minimal inhibitory concentrations (MICs, […]) against clinical isolates from Institute of Medical Microbiology, Univ. Zurich, and the IC50 values for bacterial, human mitochondrial and human cytosolic ribosomes are indicated.

[3] = tested on: clinical isolates carrying APH(3′)-II; test: MIC broth microdilution, APH(3′)-II; type: cell-based; details: clinical isolates, IMM Univ. Zurich; APH(3′)-II; read-out: MIC APH(3′)-II
Excerpt: as §1, §2

[4] = tested on: clinical isolates carrying APH(3′)-III; test: MIC broth microdilution, APH(3′)-III; type: cell-based; details: IMM Univ. Zurich
Excerpt: as §1, §2

[5] = tested on: clinical isolates carrying APH(3′)-VI; test: MIC broth microdilution, APH(3′)-VI; type: cell-based; details: IMM Univ. Zurich
Excerpt: as §1, §2

[6] = tested on: bacterial ribosomes; test: in-vitro translation assay, bacterial ribosomes; type: biochemical
Outline: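 Inhibitory potency was determined as IC50 in in-vitro translation systems based on bacterial ribosomes, human chimeric (mitochondrial-type) ribosomes or rabbit reticulocyte (cytosolic) ribosomes.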

[7] = tested on: human mitochondrial ribosomes; test: in-vitro translation assay, human mitochondrial (human chimeric) ribosomes; type: biochemical
Outline: (§3)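 Each ribosome preparation (bacterial, human chimeric as the mitochondrial model, rabbit reticulocyte as the cytosolic model) drives in-vitro translation with the test compound present. Inhibition of translation gives the IC50.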

[8] = tested on: human cytosolic ribosomes; test: in-vitro translation assay, human cytosolic ribosomes; type: biochemical
Outline: as §3

[9] = tested on: AG212, Escherichia coli ATCC25922; test: MIC reference strain AG212; type: cell-based; details: Escherichia coli; reference strain ATCC25922; read-out: MIC AG212 E. coli
Outline: (§4)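 Read-out is the minimal inhibitory concentration, obtained through broth microdilution done according to the CLSI method for aerobes.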

[10] = tested on: AG215, Klebsiella pneumonia; test: MIC reference strain AG215; type: cell-based; details: Klebsiella pneumoniae, reference strain; read-out: MIC AG215 K. pneumonia
Outline: as §4

[11] = tested on: AG290, Enterobacter cloacae; test: MIC reference strain AG290; type: cell-based; details: Enterobacter cloacae; reference strain; read-out: MIC AG290 E. cloacae
Outline: as §4

[12] = tested on: AG220, Pseudomonas aeruginosa ATCC27853; test: MIC reference strain AG220; type: cell-based; details: Pseudomonas aeruginosa, ATCC27853, reference strain ATCC27853; read-out: MIC AG220 P. aeruginosa
Outline: as §4

[13] = tested on: AG225, Acinetobacter baumannii pittii; test: MIC reference strain AG225; type: cell-based; details: Acinetobacter baumannii, reference strain; read-out: MIC AG225 A. baumannii
Outline: as §4

[14] = tested on: AG001 E. coli WT; test: Antibacterial activity, clinical isolate AG001; type: cell-based; set-up: unit not given here
Outline: (§5)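 Values are minimal inhibitory concentrations, obtained by serial dilution of compound in broth according to CLSI guidance for aerobes.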

[15] = tested on: AG055 E. coli WT; test: Antibacterial activity, clinical isolate AG055; type: cell-based; set-up: unit not given here
Outline: as §5

[16] = tested on: AG003 E. coli AAC(3)-II; test: Antibacterial activity, clinical isolate AG003; type: cell-based
Outline: as §5

[17] = tested on: AG173 E. coli AAC(3)-IV; test: Antibacterial activity, clinical isolate AG173; type: cell-based
Outline: as §5

[18] = tested on: AG163 E. coli APH(3′)-I; test: Antibacterial activity, clinical isolate AG163; type: cell-based
Excerpt: as §1
Table 4 and 5 show the antibacterial activity of the compounds of the invention against bacterial reference strains (table 4) and against representative clinical isolates (table 5).

[19] = tested on: AG038 MRSA; test: Antibacterial activity, clinical isolate AG038; type: cell-based; set-up: unit not given here
Outline: as §5

[20] = tested on: AG039 MRSA AAC(6′)-I ANT(4′)-I; test: Antibacterial activity, clinical isolate AG039; type: cell-based
Outline: as §5

[21] = tested on: AG042 MRSA AAC(6′)-I ANT(4′)-I APH(2′); test: Antibacterial activity, clinical isolate AG042; type: cell-based; set-up: unit not given here
Outline: as §5

[22] = tested on: AG031 P. aer. APH(3′)-II; test: Antibacterial activity, clinical isolate AG031; type: cell-based; set-up: unit not given here
Outline: as §5

[23] = tested on: AG032 P. aer. APH(3′)-II; test: Antibacterial activity, clinical isolate AG032; type: cell-based; set-up: unit not given here
Outline: as §5

[24] = tested on: AG033 P. aer. APH(3′)-II AAC(6′)-I; test: Antibacterial activity, clinical isolate AG033; type: cell-based; set-up: unit not given here
Outline: as §5

[25] = tested on: Engineered E. coli pH430 WT; test: Activity, engineered E. coli pH430 WT; type: cell-based; details: wild type
Outline: (§6)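 Read-out is the minimal inhibitory concentration, obtained in broth microdilution run according to CLSI guidelines (M07-A10).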

[26] = tested on: Engineered E. coli AG103 armA; test: Activity against G1405-methylated 16S-rRNA, E. coli AG103 armA; type: cell-based
Excerpt: as §1

[27] = tested on: Engineered E. coli pH424 armA; test: Activity against G1405-methylated 16S-rRNA, E. coli pH424 armA; type: cell-based
Outline: as §6

[28] = tested on: Engineered E. coli pH425 rmtB; test: Activity against G1405-methylated 16S-rRNA, E. coli pH425 rmtB; type: cell-based
Outline: as §6

[29] = tested on: Engineered E. coli pH426 rmtC; test: Activity against G1405-methylated 16S-rRNA, E. coli pH426 rmtC; type: cell-based
Outline: as §6

[30] = tested on: Engineered E. coli pH427 rmtF; test: Activity against G1405-methylated 16S-rRNA, E. coli pH427 rmtF; type: cell-based
Outline: as §6

[31] = tested on: SZ380, Mycobacterium smegmatis; test: MIC reference strain SZ380; type: cell-based; details: Mycolicibacterium smegmatis, reference strain; read-out: MIC SZ380 M. smegmatis
Outline: as §4

[32] = tested on: ATCC19977 M. abcessus; test: MIC reference strain ATCC19977; type: cell-based; details: read-out: MIC ATCC19977 M. abcessus
Outline: as §5

Structure (SMILES) | MIC [1] | MIC [2] | MIC [3] | MIC [4] | MIC [5] | IC50 [6] | IC50 [7] | IC50 [8] | MIC [9] | MIC [10] | MIC [11] | MIC [12] | MIC [13] | Antibacterial activity AG001 E. coli WT [14] | Antibacterial activity AG055 E. coli WT [15] | Antibacterial activity AG003 E. coli AAC(3)-II [16] | Antibacterial activity AG173 E. coli AAC(3)-IV [17] | Antibacterial activity AG163 E. coli APH(3′)-I [18] | Antibacterial activity AG038 MRSA [19] | Antibacterial activity AG039 MRSA AAC(6′)-I ANT(4′)-I [20] | other results
CNC1C(OC2OC(CO)C(N)C(O)C2O)OC2CC(N)C(OC3C(N)CC(N)C(O)C3OC3OCC(O)C3O)OC2C1O (stereo not drawn) [DC146, 5-O-β-D—(Erythrofuranosyl) apramycin] | 32 mg/L (≈ 49.9 µM) | 4 mg/L (≈ 6.23 µM) | 4 mg/L (≈ 6.23 µM) | 1 mg/L (≈ 1.56 µM) | 8 mg/L (≈ 12.5 µM) | 0.09 µM | 215 µM | 321 µM | 16 mg/L | 4 mg/L | 4 mg/L | 32 mg/L | 8 mg/L | 16 | 16 | 16 | 128 | 8 | 16-32 | 16-32 | Antibacterial activity AG042 MRSA AAC(6′)-I ANT(4′)-I APH(2′) [21]: 16; Antibacterial activity AG031 P. aer. APH(3′)-II [22]: 64; Antibacterial activity AG032 P. aer. APH(3′)-II [23]: 64; Antibacterial activity AG033 P. aer. APH(3′)-II AAC(6′)-I [24]: 64-128; Activity E. coli pH430 WT [25]: 8; Activity E. coli AG103 armA [26]: 1; Activity E. coli pH424 armA [27]: 4; Activity E. coli pH425 rmtB [28]: 4; Activity E. coli pH426 rmtC [29]: 8; Activity E. coli pH427 rmtF [30]: 4
CNC1C(OC2OC(CO)C(N)C(O)C2O)OC2CC(N)C(OC3C(N)CC(N)C(O)C3OC3OC(CNC=O)C(O)C3O)OC2C1O [DC177, 5-O-β-(5′″-Formamido-5′″-deoxy-D-ribefuranosyl) apramycin] | > 32 mg/L | 4 mg/L (≈ 5.72 µM) | 8 mg/L (≈ 11.4 µM) | 2 mg/L (≈ 2.86 µM) | 8 mg/L (≈ 11.4 µM) | 0.23 µM | 399 µM | > 500 µM | 8 mg/L | 4 mg/L | 8 mg/L | > 64 mg/L | 16 mg/L | 8 | 16 | 8 | >64 | 8 | 32 | 16-32 | MIC [31]: 2 mg/L; MIC [32]: 16 mg/L (≈ 22.9 µM); Antibacterial activity AG042 MRSA AAC(6′)-I ANT(4′)-I APH(2′) [21]: 32; Antibacterial activity AG031 P. aer. APH(3′)-II [22]: >32; Antibacterial activity AG032 P. aer. APH(3′)-II [23]: >32; Antibacterial activity AG033 P. aer. APH(3′)-II AAC(6′)-I [24]: >32; Activity E. coli pH430 WT [25]: 8; Activity E. coli AG103 armA [26]: 2-4; Activity E. coli pH424 armA [27]: 8; Activity E. coli pH425 rmtB [28]: 8; Activity E. coli pH426 rmtC [29]: 16; Activity E. coli pH427 rmtF [30]: 8

From patent publication US11485751B2, “Apramycin derivatives” (WAYNE STATE UNIVERSITY, priority 2017, dated 2022)
